From the NIST ThermoML archive (doi:10.1021/acs.jced.9b00794)

Experiment: mn = molality of the nth substance listed, in mol/kg
Conditions: 99.6 kPa, Liquid, Vibrating tube method

NC(N)=O [urea] + NC=O
mass density [kg/m3]
Conditions	288.15 K	298.15 K	308.15 K	318.15 K	328.15 K
m1 = 0.1057	1138.95	1130.54	1122.1	1113.61	1105.1
m1 = 0.1893	1139.77	1131.36	1122.91	1114.44	1105.94
m1 = 0.3308	1141.12	1132.72	1124.29	1115.82	1107.33
m1 = 0.4766	1142.51	1134.11	1125.69	1117.23	1108.75
m1 = 0.675	1144.34	1135.96	1127.55	1119.11	1110.64
m1 = 0.7518	1145.05	1136.67	1128.26	1119.83	1111.37
m1 = 0.8498	1145.93	1137.56	1129.16	1120.74	1112.28
m1 = 1.07	1147.9	1139.54	1131.15	1122.75	1114.3
m1 = 1.292	1149.82	1141.49	1133.11	1124.72	1116.29
m1 = 1.33	1150.15	1141.82	1133.44	1125.05	1116.63
m1 = 1.424	1150.95	1142.62	1134.26	1125.87	1117.45
m1 = 1.555	1152.06	1143.73	1135.38	1127	1118.59
m1 = 1.681	1153.09	1144.79	1136.43	1128.06	1119.66
m1 = 1.718	1153.4	1145.09	1136.75	1128.38	1119.98
m1 = 1.824	1154.26	1145.96	1137.63	1129.27	1120.87
m1 = 1.999	1155.67	1147.39	1139.06	1130.7	1122.32

NC(N)=O [urea] + O
mass density [kg/m3]
Conditions	288.15 K	298.15 K	308.15 K	318.15 K	328.15 K
m1 = 0.09134	1000.61	998.5	995.42	991.58	987.02
m1 = 0.2167	1002.67	1000.46	997.32	993.41	988.81
m1 = 0.3509	1004.84	1002.52	999.32	995.36	990.71
m1 = 0.5181	1007.5	1005.07	1001.77	997.75	993.05
m1 = 0.6698	1009.88	1007.34	1003.96	999.88	995.14
m1 = 0.8161	1012.14	1009.5	1006.05	1001.91	997.13
m1 = 0.9745	1014.54	1011.8	1008.27	1004.08	999.25
m1 = 1.195	1017.83	1014.96	1011.32	1007.05	1002.16
m1 = 1.33	1019.8	1016.85	1013.15	1008.83	1003.92
m1 = 1.489	1022.09	1019.05	1015.27	1010.91	1005.95
m1 = 1.6	1023.67	1020.57	1016.75	1012.35	1007.36
m1 = 1.707	1025.18	1022.02	1018.15	1013.72	1008.7
m1 = 1.898	1027.81	1024.56	1020.6	1016.12	1011.06
m1 = 2.034	1029.63	1026.33	1022.32	1017.8	1012.71
